Experimental data published in ChEMBL document CHEMBL5042544, “Discovery of a Potent and Selective ATAD2 Bromodomain Inhibitor with Antiproliferative Activity in Breast Cancer Models” (J Med Chem, 2022).
Activity calls are given as the source filed them. The calls are words filed in the database; no cut-off is given here.

Legend:
[1] = target: CREB-binding protein (Homo sapiens) (UniProt Q92793); assay: Binding affinity to human CREBBP bromodomain assessed as residual activity at 300 nM by BROMOscan method relative to control
[2] = system: SK-BR-3; assay: Antiproliferative activity against human SK-BR-3 cells expressing BRD2 assessed as inhibition of colony formation at 0.01 to 10 uM measured after 14 to 21 days by alamarBlue based colony formation assay; type: functional, cell-based; settings: dose 0.01-10 µM, time 14-21 day
[3] = system: MDA-MB-468; assay: Antiproliferative activity against human MDA-MB-468 cells expressing ATAD2 assessed as inhibition of colony formation at 0.01 to 10 uM measured after 14 to 21 days by AlamarBlue staining based colony formation assay; type: functional, cell-based; settings: dose 0.01-10 µM, time 14-21 day
[4] = target: Bromodomain-containing protein 3 (Homo sapiens, UniProt Q15059); assay: Binding affinity to human BRD3 bromodomain 2 assessed as dissociation constant by BROMOscan method
[5] = target: Protein polybromo-1 (Homo sapiens, UniProt Q86U86); assay: Binding affinity to human PBRM1 bromodomain 5 assessed as residual activity at 300 nM by BROMOscan method relative to control
[6] = target: E3 ubiquitin-protein ligase TRIM33 (Homo sapiens) (UniProt Q9UPN9); assay: Binding affinity to human TRIM33 bromodomain assessed as residual activity at 300 nM by BROMOscan method relative to control
[7] = target: Histone acetyltransferase KAT2B (Homo sapiens, UniProt Q92831); assay: Binding affinity to human PCAF bromodomain assessed as residual activity at 300 nM by BROMOscan method relative to control
[8] = target: T1, ATPase family AAA domain-containing protein 2 (Homo sapiens, UniProt Q6PL18); assay: Displacement of Halo-tagged Histone H3.3 from Nanoluc-ATAD2 BD (962 to 1119 residues) (unknown origin) transfected in human HCT116 cells incubated for 18 hrs in presence of efflux inhibitor elacridar by NanoBRET assay; type: cell-based, HCT-116
T1 sequence (Q6PL18 whole entry): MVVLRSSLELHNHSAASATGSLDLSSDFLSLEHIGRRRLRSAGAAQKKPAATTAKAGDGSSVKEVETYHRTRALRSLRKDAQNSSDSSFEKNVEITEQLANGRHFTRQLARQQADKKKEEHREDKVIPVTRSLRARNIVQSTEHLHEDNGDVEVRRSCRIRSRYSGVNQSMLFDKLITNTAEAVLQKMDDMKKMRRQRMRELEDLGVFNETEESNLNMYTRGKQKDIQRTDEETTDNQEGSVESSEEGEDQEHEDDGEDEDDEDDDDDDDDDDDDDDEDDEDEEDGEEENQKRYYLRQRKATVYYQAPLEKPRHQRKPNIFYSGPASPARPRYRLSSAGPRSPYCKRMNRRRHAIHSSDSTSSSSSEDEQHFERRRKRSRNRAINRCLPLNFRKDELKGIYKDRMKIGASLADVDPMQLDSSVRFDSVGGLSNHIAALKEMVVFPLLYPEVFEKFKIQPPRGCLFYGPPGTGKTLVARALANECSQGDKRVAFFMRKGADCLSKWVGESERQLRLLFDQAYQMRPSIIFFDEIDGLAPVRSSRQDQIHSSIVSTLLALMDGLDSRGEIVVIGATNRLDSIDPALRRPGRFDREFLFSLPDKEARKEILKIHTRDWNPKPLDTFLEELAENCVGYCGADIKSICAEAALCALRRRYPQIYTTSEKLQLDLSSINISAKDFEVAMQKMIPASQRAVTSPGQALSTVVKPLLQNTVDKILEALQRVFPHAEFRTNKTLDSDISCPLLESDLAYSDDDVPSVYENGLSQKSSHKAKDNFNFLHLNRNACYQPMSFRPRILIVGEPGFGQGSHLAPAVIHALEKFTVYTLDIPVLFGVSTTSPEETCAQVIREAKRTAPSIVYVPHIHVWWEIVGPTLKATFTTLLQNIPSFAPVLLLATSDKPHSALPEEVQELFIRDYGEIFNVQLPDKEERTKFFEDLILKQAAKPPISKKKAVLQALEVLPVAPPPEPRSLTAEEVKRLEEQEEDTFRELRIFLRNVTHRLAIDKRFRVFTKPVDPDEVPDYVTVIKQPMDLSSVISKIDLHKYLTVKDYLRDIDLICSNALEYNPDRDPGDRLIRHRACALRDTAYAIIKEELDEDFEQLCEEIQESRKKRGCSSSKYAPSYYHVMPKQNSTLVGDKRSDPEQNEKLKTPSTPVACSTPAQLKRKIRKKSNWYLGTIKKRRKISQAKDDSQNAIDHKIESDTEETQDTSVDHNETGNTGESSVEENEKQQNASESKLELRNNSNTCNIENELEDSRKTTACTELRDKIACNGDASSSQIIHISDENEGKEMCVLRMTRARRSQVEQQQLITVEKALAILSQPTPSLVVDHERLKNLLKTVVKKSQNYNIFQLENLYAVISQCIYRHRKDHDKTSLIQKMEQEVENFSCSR

[9] = target: T1, ATPase family AAA domain-containing protein 2; assay: Inhibition of GST-ATAD2 BD (951 to 1132 residues) (unknown origin) expressed in Escherichia coli BL21 (DE3) and biotinylated tetra-acetylated histone H4 peptides as substrate by TR-FRET artifact assay
[10] = target: T2, Bromodomain-containing protein 4 (Homo sapiens, UniProt O60885); assay: Binding affinity to human BRD4 bromodomain 1 assessed as residual activity at 300 nM by BROMOscan method relative to control
[11] = target: Peregrin (Homo sapiens) (UniProt P55201); assay: Binding affinity to human […] bromodomain assessed as residual activity at 300 nM by BROMOscan method relative to control
[12] = target: T1, ATPase family AAA domain-containing protein 2; assay: Displacement of Halo-tagged Histone H3.3 from Nanoluc-ATAD2 BD (962 to 1119 residues) (unknown origin) transfected in human HCT116 cells incubated for 18 hrs in presence of efflux inhibitor reversan by NanoBRET assay; type: cell-based, HCT-116
[13] = target: T2, Bromodomain-containing protein 4; assay: Displacement of Halo-tagged Histone H3.3 from Nanoluc-BRD4 BD1/BD2 (44 to 460 residues) (unknown origin) transfected in human HCT116 cells incubated for 18 hrs by NanoBRET assay; type: cell-based, HCT-116
[14] = system: EVSA-T; assay: Antiproliferative activity against human EVSA-T cells expressing ATAD2 assessed as inhibition of colony formation at 0.01 to 10 uM measured after 14 to 21 days by AlamarBlue staining based colony formation assay; type: functional, cell-based; settings: dose 0.01-10 µM, time 14-21 day
[15] = target: SWI/SNF-related matrix-associated actin-dependent regulator of chromatin subfamily A member 4 (Homo sapiens) (UniProt P51532); assay: Binding affinity to human SMARCA4 bromodomain assessed as residual activity at 300 nM by BROMOscan method relative to control
[16] = target: T2, Bromodomain-containing protein 4; assay: Binding affinity to human BRD4 bromodomain 2 assessed as residual activity at 300 nM by BROMOscan method relative to control
[17] = target: T1, ATPase family AAA domain-containing protein 2; assay: Inhibition of GST-ATAD2 BD (951 to 1132 residues) (unknown origin) expressed in Escherichia coli BL21 (DE3) and biotinylated tetra-acetylated histone H4 peptides as substrate incubated for 30 mins by TR-FRET assay

Chain of Protein polybromo-1 (Q86U86 whole entry): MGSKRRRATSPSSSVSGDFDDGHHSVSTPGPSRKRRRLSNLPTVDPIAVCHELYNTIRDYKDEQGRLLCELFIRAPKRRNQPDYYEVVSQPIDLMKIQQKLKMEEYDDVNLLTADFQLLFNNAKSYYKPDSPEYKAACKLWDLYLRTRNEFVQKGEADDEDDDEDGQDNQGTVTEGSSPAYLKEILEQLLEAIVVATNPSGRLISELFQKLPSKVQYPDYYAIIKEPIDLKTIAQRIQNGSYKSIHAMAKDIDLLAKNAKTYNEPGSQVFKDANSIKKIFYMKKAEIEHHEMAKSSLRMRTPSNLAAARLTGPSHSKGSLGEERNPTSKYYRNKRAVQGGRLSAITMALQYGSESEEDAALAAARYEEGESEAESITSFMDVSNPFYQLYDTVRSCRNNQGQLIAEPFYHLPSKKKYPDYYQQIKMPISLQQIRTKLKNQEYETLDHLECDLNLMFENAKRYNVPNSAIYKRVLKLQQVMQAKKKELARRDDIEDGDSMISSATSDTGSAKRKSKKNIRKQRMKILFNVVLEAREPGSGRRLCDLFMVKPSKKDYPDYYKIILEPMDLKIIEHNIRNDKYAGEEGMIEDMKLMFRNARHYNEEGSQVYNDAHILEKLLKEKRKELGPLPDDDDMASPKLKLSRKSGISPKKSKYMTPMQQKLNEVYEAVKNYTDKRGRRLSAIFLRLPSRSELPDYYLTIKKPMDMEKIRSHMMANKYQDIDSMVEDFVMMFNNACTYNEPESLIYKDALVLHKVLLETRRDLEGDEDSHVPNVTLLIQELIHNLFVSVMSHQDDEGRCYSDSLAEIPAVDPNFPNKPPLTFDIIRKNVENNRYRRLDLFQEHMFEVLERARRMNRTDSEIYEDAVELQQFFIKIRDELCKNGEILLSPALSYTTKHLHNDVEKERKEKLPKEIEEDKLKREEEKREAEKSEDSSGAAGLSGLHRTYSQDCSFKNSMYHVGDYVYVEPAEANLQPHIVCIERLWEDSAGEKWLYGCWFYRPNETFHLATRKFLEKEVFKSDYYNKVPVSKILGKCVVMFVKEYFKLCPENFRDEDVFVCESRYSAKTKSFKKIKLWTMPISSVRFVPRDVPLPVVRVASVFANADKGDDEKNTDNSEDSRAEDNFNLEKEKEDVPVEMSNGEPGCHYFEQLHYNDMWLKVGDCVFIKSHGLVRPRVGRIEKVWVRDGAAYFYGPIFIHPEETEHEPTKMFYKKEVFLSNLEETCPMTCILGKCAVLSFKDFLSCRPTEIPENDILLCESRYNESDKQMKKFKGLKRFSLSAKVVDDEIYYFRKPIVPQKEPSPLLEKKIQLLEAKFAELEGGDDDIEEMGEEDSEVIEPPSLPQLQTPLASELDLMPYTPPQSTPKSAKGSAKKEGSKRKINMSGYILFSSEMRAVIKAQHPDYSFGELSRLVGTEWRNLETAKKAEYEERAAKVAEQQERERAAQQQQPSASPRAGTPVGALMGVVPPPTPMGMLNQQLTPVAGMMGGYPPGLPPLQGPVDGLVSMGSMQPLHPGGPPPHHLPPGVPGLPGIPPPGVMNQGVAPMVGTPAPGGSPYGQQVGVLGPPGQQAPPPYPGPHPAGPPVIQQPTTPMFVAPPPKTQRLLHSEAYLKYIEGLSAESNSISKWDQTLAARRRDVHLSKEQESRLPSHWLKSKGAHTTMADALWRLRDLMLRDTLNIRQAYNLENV
Chain of CREB-binding protein (Homo sapiens) (Q92793 2-2442 limits assumed): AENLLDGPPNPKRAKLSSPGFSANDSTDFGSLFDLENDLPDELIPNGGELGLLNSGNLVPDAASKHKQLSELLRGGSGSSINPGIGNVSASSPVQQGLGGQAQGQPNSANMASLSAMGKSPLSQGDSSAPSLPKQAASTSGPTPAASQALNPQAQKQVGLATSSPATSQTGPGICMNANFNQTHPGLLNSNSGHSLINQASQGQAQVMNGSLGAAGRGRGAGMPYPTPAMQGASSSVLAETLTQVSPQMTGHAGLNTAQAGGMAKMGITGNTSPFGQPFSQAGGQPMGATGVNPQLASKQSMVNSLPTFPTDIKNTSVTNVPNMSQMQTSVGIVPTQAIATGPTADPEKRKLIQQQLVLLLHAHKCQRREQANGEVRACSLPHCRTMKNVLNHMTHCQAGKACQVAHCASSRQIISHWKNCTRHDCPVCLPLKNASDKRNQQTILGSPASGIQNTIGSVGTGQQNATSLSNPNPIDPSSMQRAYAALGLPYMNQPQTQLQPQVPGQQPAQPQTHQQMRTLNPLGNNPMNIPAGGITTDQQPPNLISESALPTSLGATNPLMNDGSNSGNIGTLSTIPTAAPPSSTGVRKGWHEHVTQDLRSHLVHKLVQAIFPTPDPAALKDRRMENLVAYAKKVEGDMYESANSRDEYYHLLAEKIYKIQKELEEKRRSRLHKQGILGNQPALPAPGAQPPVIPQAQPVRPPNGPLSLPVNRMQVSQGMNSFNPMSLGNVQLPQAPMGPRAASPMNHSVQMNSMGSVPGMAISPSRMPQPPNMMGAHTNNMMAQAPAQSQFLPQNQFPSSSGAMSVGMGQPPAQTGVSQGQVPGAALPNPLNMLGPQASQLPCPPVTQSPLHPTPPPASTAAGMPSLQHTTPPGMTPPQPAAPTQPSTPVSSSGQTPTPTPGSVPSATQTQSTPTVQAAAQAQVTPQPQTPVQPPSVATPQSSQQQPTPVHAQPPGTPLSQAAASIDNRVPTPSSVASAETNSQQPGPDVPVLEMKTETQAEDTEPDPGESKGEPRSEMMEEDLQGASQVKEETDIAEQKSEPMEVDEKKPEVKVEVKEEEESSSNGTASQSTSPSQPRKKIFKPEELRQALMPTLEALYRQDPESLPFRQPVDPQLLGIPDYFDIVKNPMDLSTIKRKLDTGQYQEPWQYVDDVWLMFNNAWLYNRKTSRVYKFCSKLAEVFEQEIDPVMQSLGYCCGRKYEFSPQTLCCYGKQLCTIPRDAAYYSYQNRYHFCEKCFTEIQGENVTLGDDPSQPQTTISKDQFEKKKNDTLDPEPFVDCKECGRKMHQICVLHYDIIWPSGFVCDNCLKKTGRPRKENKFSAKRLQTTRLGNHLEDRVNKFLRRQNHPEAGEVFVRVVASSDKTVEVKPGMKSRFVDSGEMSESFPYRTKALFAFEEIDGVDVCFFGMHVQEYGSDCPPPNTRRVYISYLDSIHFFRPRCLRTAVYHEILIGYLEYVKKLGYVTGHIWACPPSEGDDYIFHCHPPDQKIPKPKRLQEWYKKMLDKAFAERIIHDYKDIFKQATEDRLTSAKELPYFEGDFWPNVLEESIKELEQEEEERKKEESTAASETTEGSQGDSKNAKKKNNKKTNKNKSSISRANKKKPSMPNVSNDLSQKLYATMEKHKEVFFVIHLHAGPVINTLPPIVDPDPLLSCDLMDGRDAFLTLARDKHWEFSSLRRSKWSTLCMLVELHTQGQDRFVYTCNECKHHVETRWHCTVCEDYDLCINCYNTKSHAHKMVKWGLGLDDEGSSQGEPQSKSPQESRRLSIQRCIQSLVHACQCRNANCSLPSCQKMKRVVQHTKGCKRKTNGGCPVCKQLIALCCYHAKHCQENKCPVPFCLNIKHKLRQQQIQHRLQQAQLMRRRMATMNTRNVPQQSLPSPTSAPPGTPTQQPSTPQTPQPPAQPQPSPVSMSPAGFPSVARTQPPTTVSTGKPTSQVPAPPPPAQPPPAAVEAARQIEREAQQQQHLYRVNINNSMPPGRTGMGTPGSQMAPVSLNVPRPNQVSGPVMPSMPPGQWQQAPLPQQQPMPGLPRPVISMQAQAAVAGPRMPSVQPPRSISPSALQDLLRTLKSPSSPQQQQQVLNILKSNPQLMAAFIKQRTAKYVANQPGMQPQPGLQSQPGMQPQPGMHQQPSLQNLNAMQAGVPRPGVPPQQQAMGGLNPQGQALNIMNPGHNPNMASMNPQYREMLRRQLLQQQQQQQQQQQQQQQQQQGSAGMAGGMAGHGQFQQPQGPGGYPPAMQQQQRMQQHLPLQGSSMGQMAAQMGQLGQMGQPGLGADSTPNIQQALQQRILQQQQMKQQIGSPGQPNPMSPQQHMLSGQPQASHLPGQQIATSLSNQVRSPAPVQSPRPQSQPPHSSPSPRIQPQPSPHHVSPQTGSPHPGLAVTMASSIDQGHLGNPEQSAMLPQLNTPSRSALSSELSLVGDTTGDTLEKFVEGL
Chain of Bromodomain-containing protein 3 (Q15059 whole entry): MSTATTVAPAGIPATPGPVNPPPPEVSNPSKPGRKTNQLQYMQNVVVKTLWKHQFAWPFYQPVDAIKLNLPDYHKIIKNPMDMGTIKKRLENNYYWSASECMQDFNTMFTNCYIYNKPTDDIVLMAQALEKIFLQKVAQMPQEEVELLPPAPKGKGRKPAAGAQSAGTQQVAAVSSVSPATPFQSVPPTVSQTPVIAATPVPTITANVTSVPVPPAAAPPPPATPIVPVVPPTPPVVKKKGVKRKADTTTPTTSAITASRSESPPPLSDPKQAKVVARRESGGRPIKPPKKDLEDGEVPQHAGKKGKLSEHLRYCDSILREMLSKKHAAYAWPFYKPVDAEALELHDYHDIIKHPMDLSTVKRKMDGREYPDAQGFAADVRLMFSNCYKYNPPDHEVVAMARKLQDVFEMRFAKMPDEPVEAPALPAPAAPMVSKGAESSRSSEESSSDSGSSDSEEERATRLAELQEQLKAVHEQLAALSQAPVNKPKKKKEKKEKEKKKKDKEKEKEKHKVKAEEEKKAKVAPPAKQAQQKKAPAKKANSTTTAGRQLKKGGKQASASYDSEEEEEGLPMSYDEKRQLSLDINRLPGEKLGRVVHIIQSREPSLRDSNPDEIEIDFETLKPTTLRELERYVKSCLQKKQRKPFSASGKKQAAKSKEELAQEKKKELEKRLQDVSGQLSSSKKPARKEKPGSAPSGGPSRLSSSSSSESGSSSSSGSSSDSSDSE

For `Cc1nnc2c(NC3CCN(CC(C)(C)F)CC3)cc(C(=O)N3[C@@H]4c5ccccc5C[C@H]3C(=O)N[C@@H]4C(C)C)nn12`, the Activity [1] was 61%, the Activity [2] was “inactive” and the Activity [3] was “Dose-Dependent Effect”. For the same compound, the Kd [4] was 200 nM, the Activity [5] was 52% and the Activity [6] was 96%. The Activity [7] was 62%, the IC50 [8] was 100 nM and the IC50 [9] was > 25100 nM. For the same compound, the Activity [10] was 86%, the Activity [11] was 79% and the IC50 [12] was 79.4 nM. For the same compound, the IC50 [13] was 10000 nM, the Activity [14] was “Dose-Dependent Effect” and the Activity [15] was 80%. The Activity [16] was 73% and the IC50 [17] was 7 nM.
